Experimental data published in ChEMBL document CHEMBL1201862, “PubChem BioAssay data set” (2004).
The source made the active and inactive calls.

How the values were obtained:
[1] = Luminescence Cell-Based Dose Retest to Confirm Inhibitors of Cancer Stem Cells. [Related pubchem assays (depositor defined):AID2717, AID2721]; format: functional; settings: Homo sapiens
[2] = molecular target: T1, Heat shock factor protein 1 (Mus musculus, UniProt P38532); assay: inhibition of MG132-induced HSE-luciferase signal, confirmation, cell-based, NIH3T3, luminescence, dose retest (AID 2382); format: functional;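 further: NIH3T3 fibroblasts with HSF1-driven luciferase reporter stressed by proteasome inhibitor MG132; luminescence from HSF1-driven luciferase expression after 8 hours of MG132 stress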
T1 sequence (P38532 whole entry): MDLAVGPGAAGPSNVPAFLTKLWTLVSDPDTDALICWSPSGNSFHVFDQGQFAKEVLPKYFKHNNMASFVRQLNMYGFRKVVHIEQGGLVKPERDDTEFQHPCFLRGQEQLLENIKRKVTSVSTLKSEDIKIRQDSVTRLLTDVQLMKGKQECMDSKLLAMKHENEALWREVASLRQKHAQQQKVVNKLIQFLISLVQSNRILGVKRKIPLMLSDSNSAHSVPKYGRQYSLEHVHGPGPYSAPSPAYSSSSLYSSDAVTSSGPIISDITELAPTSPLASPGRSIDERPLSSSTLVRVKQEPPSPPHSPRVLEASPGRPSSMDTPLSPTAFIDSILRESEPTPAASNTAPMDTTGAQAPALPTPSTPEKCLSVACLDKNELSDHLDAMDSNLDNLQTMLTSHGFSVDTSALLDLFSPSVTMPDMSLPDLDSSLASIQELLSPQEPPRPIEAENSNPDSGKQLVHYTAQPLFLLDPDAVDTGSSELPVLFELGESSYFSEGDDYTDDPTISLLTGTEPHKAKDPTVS

[3] = molecular target: T2, Polyadenylate-binding protein 1 (Homo sapiens, UniProt P11940); assay: PABP1 MLLE–PAM2 interaction inhibitors, dose response, miRNA deadenylation inhibitor project, biochemical, fluorescence polarization, Cy5-PAM2 peptide, secondary (AID 602260); format: functional; settings: read-out: IC50_Mean
T2 sequence (P11940 whole entry): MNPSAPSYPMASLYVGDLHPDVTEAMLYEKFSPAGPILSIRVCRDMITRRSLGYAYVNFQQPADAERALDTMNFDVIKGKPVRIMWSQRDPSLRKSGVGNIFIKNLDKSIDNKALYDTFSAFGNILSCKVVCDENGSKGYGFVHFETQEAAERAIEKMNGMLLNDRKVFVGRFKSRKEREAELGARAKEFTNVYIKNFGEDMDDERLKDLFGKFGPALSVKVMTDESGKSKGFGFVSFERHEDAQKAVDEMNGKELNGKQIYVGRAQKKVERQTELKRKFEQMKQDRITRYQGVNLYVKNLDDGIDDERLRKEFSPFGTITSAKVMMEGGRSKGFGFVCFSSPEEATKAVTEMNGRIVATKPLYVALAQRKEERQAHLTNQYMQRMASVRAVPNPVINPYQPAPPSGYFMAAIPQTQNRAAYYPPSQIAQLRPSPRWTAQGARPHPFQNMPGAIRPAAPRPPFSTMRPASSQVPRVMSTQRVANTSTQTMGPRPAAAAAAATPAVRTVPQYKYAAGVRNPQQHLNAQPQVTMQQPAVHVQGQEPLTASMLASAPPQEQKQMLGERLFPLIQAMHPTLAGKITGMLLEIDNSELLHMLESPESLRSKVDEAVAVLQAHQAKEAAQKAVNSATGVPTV

[4] = molecular target: T2, Polyadenylate-binding protein 1; assay: PABP1 MLLE–PAM2 binding inhibitor potency, dose response, biochemical, fluorescence polarization, FITC-PAM2 peptide (AID 602259); format: functional; settings: read-out: IC50_Mean
[5] = molecular target: Cytochrome P450 2D6 (Homo sapiens, UniProt P10635);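 further: CYP2D6 member of a cytochrome P450 panel assay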
Sequence of Cytochrome P450 2D6 (P10635 whole entry): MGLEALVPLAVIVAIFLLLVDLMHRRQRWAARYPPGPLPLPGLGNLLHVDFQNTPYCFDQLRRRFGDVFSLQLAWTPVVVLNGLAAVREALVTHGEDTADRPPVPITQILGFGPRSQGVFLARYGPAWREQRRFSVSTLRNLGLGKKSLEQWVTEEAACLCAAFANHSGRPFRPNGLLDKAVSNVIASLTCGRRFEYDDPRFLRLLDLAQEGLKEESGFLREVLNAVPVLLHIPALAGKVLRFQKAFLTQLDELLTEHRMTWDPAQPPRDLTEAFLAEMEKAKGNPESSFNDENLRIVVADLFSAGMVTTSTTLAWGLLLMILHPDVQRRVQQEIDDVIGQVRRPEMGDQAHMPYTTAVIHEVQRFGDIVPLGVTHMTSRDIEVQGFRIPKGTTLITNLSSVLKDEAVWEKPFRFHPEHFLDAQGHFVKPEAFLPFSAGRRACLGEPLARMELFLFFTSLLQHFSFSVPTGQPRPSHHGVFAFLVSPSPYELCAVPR

[6] = molecular target: Cytochrome P450 3A4 (Homo sapiens, UniProt P08684);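 further: CYP3A4 tested as one member of a cytochrome P450 panel screen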
Sequence of Cytochrome P450 3A4 (P08684 whole entry): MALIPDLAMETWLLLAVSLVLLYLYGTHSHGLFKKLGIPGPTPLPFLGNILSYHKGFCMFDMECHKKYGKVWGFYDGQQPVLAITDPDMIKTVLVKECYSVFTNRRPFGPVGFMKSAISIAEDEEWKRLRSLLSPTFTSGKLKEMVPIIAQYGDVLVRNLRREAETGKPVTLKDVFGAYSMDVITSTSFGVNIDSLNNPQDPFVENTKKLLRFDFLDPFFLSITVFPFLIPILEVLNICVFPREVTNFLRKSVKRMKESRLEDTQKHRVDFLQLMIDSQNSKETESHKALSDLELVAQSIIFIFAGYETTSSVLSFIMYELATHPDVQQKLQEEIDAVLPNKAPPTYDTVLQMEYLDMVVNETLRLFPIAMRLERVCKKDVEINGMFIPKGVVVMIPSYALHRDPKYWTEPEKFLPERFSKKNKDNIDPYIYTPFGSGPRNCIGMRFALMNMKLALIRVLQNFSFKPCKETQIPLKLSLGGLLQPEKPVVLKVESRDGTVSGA

[7] = molecular target: T3, Rac GTPase-activating protein 1 (Homo sapiens, UniProt Q9H0H5); assay: MgcRacGAP GTPase-activating activity inhibitors, confirmation, biochemical, ADP Hunter fluorescence, primary and confirmatory (AID 624330); format: functional
T3 sequence (Q9H0H5 whole entry): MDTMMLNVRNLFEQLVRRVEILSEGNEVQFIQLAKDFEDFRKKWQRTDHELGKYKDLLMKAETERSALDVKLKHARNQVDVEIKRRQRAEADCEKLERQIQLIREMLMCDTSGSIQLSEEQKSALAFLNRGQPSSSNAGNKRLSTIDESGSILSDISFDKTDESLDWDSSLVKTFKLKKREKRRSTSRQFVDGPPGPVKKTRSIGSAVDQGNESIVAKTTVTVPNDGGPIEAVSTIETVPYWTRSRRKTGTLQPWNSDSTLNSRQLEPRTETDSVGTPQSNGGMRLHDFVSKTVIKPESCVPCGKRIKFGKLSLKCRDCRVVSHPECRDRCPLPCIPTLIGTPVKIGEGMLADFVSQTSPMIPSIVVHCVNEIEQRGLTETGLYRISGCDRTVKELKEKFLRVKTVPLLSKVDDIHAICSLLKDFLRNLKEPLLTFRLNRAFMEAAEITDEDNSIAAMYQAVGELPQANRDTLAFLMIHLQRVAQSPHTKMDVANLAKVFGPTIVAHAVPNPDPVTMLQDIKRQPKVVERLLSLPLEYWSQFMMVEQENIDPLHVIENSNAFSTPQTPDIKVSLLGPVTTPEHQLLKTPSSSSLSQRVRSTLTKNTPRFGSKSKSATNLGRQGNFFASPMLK

[8] = molecular target: Cytochrome P450 2C19 (Homo sapiens, UniProt P33261); assay: Cytochrome panel assay with activity outcomes. Panel member name: p450-cyp2c19 Compounds with AC50 equal or less than 10 uM are considered active; format: functional; settings: read-out: AC50
Sequence of Cytochrome P450 2C19 (P33261 whole entry): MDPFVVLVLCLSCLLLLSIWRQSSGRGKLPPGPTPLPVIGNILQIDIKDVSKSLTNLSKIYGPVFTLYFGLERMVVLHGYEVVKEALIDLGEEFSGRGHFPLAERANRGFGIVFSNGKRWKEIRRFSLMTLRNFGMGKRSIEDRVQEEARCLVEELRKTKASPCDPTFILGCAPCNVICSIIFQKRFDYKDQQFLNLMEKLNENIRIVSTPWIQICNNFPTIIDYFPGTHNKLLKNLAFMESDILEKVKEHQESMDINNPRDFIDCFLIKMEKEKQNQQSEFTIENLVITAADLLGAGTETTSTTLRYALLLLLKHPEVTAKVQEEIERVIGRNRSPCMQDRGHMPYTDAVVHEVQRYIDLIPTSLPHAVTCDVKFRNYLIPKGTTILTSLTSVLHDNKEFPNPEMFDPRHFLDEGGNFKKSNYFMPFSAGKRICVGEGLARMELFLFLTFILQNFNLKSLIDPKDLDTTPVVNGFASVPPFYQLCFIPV

[9] = inhibitors of SNCA 5'UTR-driven reporter translation, confirmation, H4 neuroglioma cells, luminescence (AID 1988); format: functional, cell-based
[10] = inhibitors of firefly luciferase expression or activity, dose response, H4 neuroglioma cells, luminescence (AID 1990); format: functional, cell-based
[11] = inhibitors of intracellular T. cruzi replication, confirmation, NIH3T3 host cells, beta-gal luminescence (AID 2044); format: functional, cell-based;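 further: intracellular parasites grown in NIH/3T3 mouse fibroblasts as host cells; luminescent beta-galactosidase reporter signal from transgenic T. cruzi replicating inside host cells; inhibitors lower the luminescence signal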
[12] = cytotoxicity toward NIH3T3 fibroblasts, dose response, counter-screen, cell-based, ATP luminescence, mouse fibroblasts (AID 2010); format: functional;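 further: cells exposed to compound for about 90 hours before reading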
[13] = molecular target: T4, Streptokinase A (Streptococcus pyogenes serotype M1, UniProt P10520); assay: S. pyogenes streptokinase expression inhibitors, potency, dose response, plasminogen activation absorbance, OD405 (AID 1914); format: functional, Streptococcus pyogenes M1 GAS;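 further: secreted streptokinase activity via plasminogen activation per viability signal from cell pellet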
T4 sequence (P10520 whole entry): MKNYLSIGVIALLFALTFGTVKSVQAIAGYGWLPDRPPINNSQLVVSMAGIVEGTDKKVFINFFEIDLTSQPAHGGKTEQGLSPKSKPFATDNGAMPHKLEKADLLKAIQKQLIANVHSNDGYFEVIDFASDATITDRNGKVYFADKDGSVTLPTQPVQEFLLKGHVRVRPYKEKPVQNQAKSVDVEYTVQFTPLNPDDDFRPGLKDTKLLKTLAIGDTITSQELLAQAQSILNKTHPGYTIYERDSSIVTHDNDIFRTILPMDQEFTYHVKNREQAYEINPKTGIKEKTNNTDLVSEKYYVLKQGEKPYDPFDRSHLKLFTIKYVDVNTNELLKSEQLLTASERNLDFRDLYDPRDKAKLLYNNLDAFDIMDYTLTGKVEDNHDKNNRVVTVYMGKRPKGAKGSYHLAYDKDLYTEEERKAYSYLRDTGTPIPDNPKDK

[14] = test system: Streptococcus sp. 'group A'; assay: growth inhibition of control SK(-) GAS strain, dose response, counter-screen for streptokinase expression inhibitor project, luminescence, kanamycin, BacTiterGlo, confirmation (AID 1900); format: functional, organism-based
[15] = test system: Streptococcus; assay: Group A Streptococcus viability loss, dose response, counter-screen for streptokinase expression inhibitor project, luminescence, BacTiterGlo (AID 1915); format: functional, organism-based;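 further: potency for reduction of bacterial viability or growth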

For Cc1cc(C)cc(NC(=O)Nc2ccc(-n3ccc(C(F)(F)F)n3)cc2)c1, the AC50 [1] was 1.61 µM (active).
For CCCN1CCc2c(sc(NC(=O)c3ccc(S(=O)(=O)N(C)c4ccccc4)cc3)c2C(=O)NC)C1, the AC50 [1] was 3.26 µM (active).
With CCOC(=O)N1CCN(S(=O)(=O)c2ccc3c(c2)OCC(=O)N3)CC1 the EC50 [2] was > 195 µM (not active).
With Cc1ccc(S(=O)(=O)Nc2cc(C)c(O)c(Sc3nnc(C)[nH]3)c2)cc1 the IC50 [3] was > 66 µM (inactive) and the IC50 [4] was > 66 µM (inactive).
For O=c1c(-c2cccs2)nc2cnc(N3CCNCC3)nc2n1CCc1ccccc1, the AC50 [5] was 25.1 µM (inconclusive).
For Cc1csc(=O)n1CCC(=O)OCC(=O)NNC(=O)c1ccc(Cl)cc1, the IC50 [3] was > 66 µM (inactive) and the IC50 [4] was > 66 µM (inactive).
With CC(=O)N1CCC[C@@]2(CCN(Cc3ccccc3)C2)C1 the AC50 [6] was 39.8 µM (inconclusive) and the AC50 [5] was 15.8 µM (inconclusive).
For CCN(CCS(=O)(=O)c1ccc(Cl)cc1)C(=O)Nc1ccccc1, the EC50 [2] was > 195 µM (not active).
With c1ccc2nc(C3=NCCN3)ccc2c1 the AC50 [5] was 20 µM (inconclusive).
For Cc1ccc(C(c2sc3ncnn3c2O)N2CC(C)CC(C)C2)cc1 (stereo not drawn), the EC50 [2] was > 195 µM (not active).
With CCN(CC)c1ccc(/C=N/NC(=O)c2cc3ccccc3[nH]2)cc1 the IC50 [7] was 146 µM (active).
For CCOc1cc(NC(=O)c2ccccn2)c(OCC)cc1NC(=O)c1ccccc1, the AC50 [1] was 24.4 µM (active).
In the case of CCOP(=O)(OCC)c1cccc(OP(=O)(c2cccc([N+](=O)[O-])c2)c2cccc([N+](=O)[O-])c2)c1, the EC50 [2] is reported as > 195 µM (not active).
With CS(=O)(=O)N1CCN(c2ccccc2NC(=O)c2ccc(Br)o2)CC1 the AC50 [8] was 39.8 µM (inconclusive) and the AC50 [5] was 22.4 µM (inconclusive).
In the case of O=C(CN1CCN(C/C=C/c2ccccc2)CC1)Nc1ccccc1C(=O)NC1CC1, the IC50 [7] is reported as 90.5 µM (active).
For NN=C(S)NC1CC2CC1C1C=CCC21 (stereo not drawn), the EC50 [2] was > 195 µM (not active).
In the case of CC1=C(C(=O)OCc2ccccc2)C(c2ccc([N+](=O)[O-])cc2)NC(=O)N1CCCCCC(=O)O (stereo not drawn), the AC50 [6] is reported as 10 µM (inconclusive) and the AC50 [5] is reported as 20 µM (inconclusive).
With O=C(Nc1ccc(OC(F)F)c(Cl)c1)Nc1ccc2c(c1)OCO2 the AC50 [1] was 2.04 µM (active).
For O=C(c1cc2c(s1)-c1ccccc1OC2)N1CCN(c2ccccc2)CC1, the EC50 [2] was > 195 µM (not active).
For COCC(=O)N1CCC2(CCCN(c3ncccn3)C2)CC1, the AC50 [5] was 20 µM (inconclusive).
With COc1cccc(OCC(O)CN2CCN(C)CC2)c1 (stereo not drawn) the IC50 [7] was 74.6 µM (active).
In the case of CCCSc1nnc(CNS(=O)(=O)c2ccc(C)cc2)n1C, the EC50 [2] is reported as > 195 µM (not active).
For C/C(CCN1CCCc2nc(C)c(C)cc21)=N\O[C@@H](C)c1cn([C@H](CO)Cc2ccccc2)nn1, the AC50 [5] was 3.98 µM (inconclusive).
In the case of NC(=O)CC(NC(=O)Cc1ccc(Br)cc1)c1ccc(NCc2cc(F)ccc2F)c([N+](=O)[O-])c1 (stereo not drawn), the AC50 [1] is reported as 2.52 µM (active).
With c1ccc(Cc2nn3c(-c4ccncc4)nnc3s2)cc1 the IC50 [3] was > 66 µM (inactive) and the IC50 [4] was > 66 µM (inactive).
In the case of CCN1C(=O)/C(=C2\SC(=S)N(c3c(C)n(C)n(-c4ccccc4)c3=O)C2=O)c2ccccc21, the IC50 [3] is reported as > 66 µM (inactive) and the IC50 [4] is reported as > 66 µM (inactive).
For Cc1nc2cc(C(=O)O)ccc2s1, the IC50 [3] was > 66 µM (inactive) and the IC50 [4] was > 66 µM (inactive).
In the case of C1CC2CN(c3nc4nonc4nc3N3CCSCC3)CCN2C1 (stereo not drawn), the IC50 [3] is reported as > 66 µM (inactive) and the IC50 [4] is reported as > 66 µM (inactive).
For CCOC(=O)C(CC)Sc1nc2c(c(=O)[nH]c(=O)n2C)n1CCc1ccccc1 (stereo not drawn), the IC50 [3] was > 66 µM (inactive) and the IC50 [4] was > 66 µM (inactive).
For C=C(C)c1cccc(C(C)(C)NC(=O)Nc2cc(C)ccc2OC)c1, the AC50 [5] was 12.6 µM (inconclusive).
In the case of O=C(NCCN1CCN(Cc2ccccc2)CC1)C1c2ccccc2C(=O)N2CCc3ccccc3C12 (stereo not drawn), the AC50 [8] is reported as 39.8 µM (inconclusive) and the AC50 [5] is reported as 11.2 µM (inconclusive).
In the case of COc1cccc2sc(Nc3nc(-c4ccncc4)cs3)nc12, the EC50 [9] is reported as 0.601 µM (active), the EC50 [10] is reported as 3.2 µM (active) and the EC50 [11] is reported as 2.41 µM (active). For the same molecule, the EC50 [12] was 3.65 µM (active).
For CC(C)NC(=O)N1CCCC2(CCN(C(=O)c3csnn3)CC2)C1, the AC50 [6] was 25.1 µM (inconclusive) and the AC50 [5] was 12.6 µM (inconclusive).
In the case of Fc1ccc(CNCCc2ccccc2)cc1, the IC50 [7] is reported as 249 µM (active).
With CS(=O)(=O)N(Cc1ccccc1)c1ccc(C(=O)NCCSCc2ccco2)cc1 the IC50 [3] was > 66 µM (inactive) and the IC50 [4] was > 66 µM (inactive).
In the case of Cc1ccc(Cl)cc1NC(=O)C1COc2ccccc2O1 (stereo not drawn), the EC50 [2] is reported as > 195 µM (not active).
For O=C(CN1CCc2ccccc21)NC(=O)NCc1ccco1, the AC50 [6] was 28.2 µM (inconclusive) and the AC50 [5] was 14.1 µM (inconclusive).
In the case of FC(F)(F)c1ccccc1-c1nc(NCc2cccs2)c2ccccc2n1, the AC50 [5] is reported as 25.1 µM (inconclusive).
With Nc1ccc2c(c1)Oc1ccccc1C=C2 the AC50 [1] was > 195 µM (inactive).
For COc1cc(/C=C/C(=O)OCC(=O)NC(=O)NC(C)C)ccc1O, the IC50 [7] was 47.7 µM (active).
In the case of O=C(/C=C/c1ccco1)NC(=S)Nc1ccc(N2CCCC2)cc1, the IC50 [3] is reported as > 66 µM (inactive) and the IC50 [4] is reported as > 66 µM (inactive).
For COc1ccc(C(=O)N2CCN=C2SCc2cccnc2)cc1OC, the EC50 [2] was > 195 µM (not active).
With Cc1cc(C(=O)NC2CCCN(Cc3ccc(Cl)cc3)C2)n(C)n1 (stereo not drawn) the EC50 [2] was > 195 µM (not active).
In the case of CCOC(=O)CSC1=N/C(=C\c2cc(OC)c(OC)c(OC)c2)C(=O)N1C, the IC50 [3] is reported as > 66 µM (inactive) and the IC50 [4] is reported as > 66 µM (inactive).
In the case of Nc1ccc(N=Nc2ccccc2)c2ccccc12, the EC50 [13] is reported as > 150 µM (not active), the EC50 [14] is reported as 8.03 µM (active) and the AC50 [1] is reported as 6.49 µM (active). For the same molecule, the EC50 [15] was 9.13 µM (active).
For CCN1C(=O)/C(=C/c2ccc(OC)c(OC)c2)N=C1SCC(=O)NCc1ccco1, the IC50 [3] was > 66 µM (inactive) and the IC50 [4] was > 66 µM (inactive).
With COc1cc2sc(-c3ccccc3OC)c(-c3ccc(O)cc3)c2cc1OC the AC50 [1] was 2.32 µM (active).
For Cc1ccc(/C=C/C(=O)Nc2nn[nH]n2)o1, the IC50 [3] was > 66 µM (inactive) and the IC50 [4] was > 66 µM (inactive).
With CCN(c1ccccc1)S(=O)(=O)c1c[nH]cn1 the EC50 [2] was > 195 µM (not active).
